From a compilation of properties of binary mixtures (doi:10.1016/j.jct.2022.106789)

Assay: xn = mol fraction of the nth substance listed
Conditions: 100 kPa

CC(C)O + CCCCCC[N+](CC)(CC)CC.O=S(=O)([N-]S(=O)(=O)C(F)(F)F)C(F)(F)F
x1 = 1
Conditions | speed of sound [m/s] | viscosity [mPa·s]
293.15 K | 1155.7 | 2.42
313.15 K | 1085.8 | 1.34

CC(C)O + CCCCCC[n+]1ccn(C)c1.O=S(=O)([O-])C(F)(F)F
x1 = 1
Conditions | speed of sound [m/s] | viscosity [mPa·s]
293.15 K | 1155.7 | 2.42
303.15 K | 1120.8 | 1.73
313.15 K | 1085.8 | 1.34

CCCCCC[N+](CC)(CC)CC.O=S(=O)([N-]S(=O)(=O)C(F)(F)F)C(F)(F)F + CC(C)O
Conditions | speed of sound, 293.15 K [m/s] | speed of sound, 298.15 K [m/s] | speed of sound, 303.15 K [m/s] | speed of sound, 308.15 K [m/s] | speed of sound, 313.15 K [m/s] | viscosity, 293.15 K [mPa·s] | viscosity, 298.15 K [mPa·s] | viscosity, 303.15 K [mPa·s] | viscosity, 308.15 K [mPa·s] | viscosity, 313.15 K [mPa·s]
x2 = 0 | 1295.3 | 1282.7 | 1270.4 | 1258.3 | 1246.7 | 241 | 187 | 138 | 105 | 80.7
x2 = 0.096 | – | 1277.1 | 1264.8 | 1252.7 | – | – | 136 | 109 | 90 | –
x2 = 0.2045 | 1282.6 | – | 1257.8 | 1246 | 1233.9 | 108 | – | 83.1 | 68.1 | 55.3
x2 = 0.3101 | 1273.6 | – | – | 1236.2 | 1224 | 74.1 | – | – | 49.3 | 41.4
x2 = 0.4056 | 1264 | 1250.9 | 1237.9 | – | 1213.3 | 55.3 | 50.3 | 44.3 | – | 30
x2 = 0.4987 | 1253.3 | – | 1226.8 | – | 1201.7 | 42.1 | – | 31.8 | – | 21.9
x2 = 0.5916 | 1240.8 | 1227.6 | 1214.5 | – | – | 30.7 | 25.3 | 20.9 | – | –
x2 = 0.7088 | 1220.1 | 1206.5 | 1192.8 | 1179.4 | 1166 | 17.9 | 14.4 | 12.1 | 10.4 | 9.33
x2 = 0.8015 | 1198 | 1184 | 1170.3 | – | 1142.5 | 11.2 | 8.83 | 7.01 | – | 4.94
x2 = 0.9193 | 1167 | 1151.8 | 1136.7 | – | 1106.5 | 5.24 | 4.36 | 3.67 | – | 2.38
x2 = 0.9503 | 1161 | – | – | – | – | – | – | – | – | –

CCCCCC[n+]1ccn(C)c1.O=S(=O)([O-])C(F)(F)F + CC(C)O
Conditions | speed of sound, 293.15 K [m/s] | speed of sound, 298.15 K [m/s] | speed of sound, 303.15 K [m/s] | speed of sound, 308.15 K [m/s] | speed of sound, 313.15 K [m/s] | viscosity, 293.15 K [mPa·s] | viscosity, 298.15 K [mPa·s] | viscosity, 303.15 K [mPa·s] | viscosity, 308.15 K [mPa·s] | viscosity, 313.15 K [mPa·s]
x2 = 0 | 1376.7 | 1364.8 | 1353.2 | 1342.1 | 1330.9 | 195 | 151 | 116 | 91.1 | 74
x2 = 0.1282 | 1366.5 | – | 1343 | 1331.5 | 1319.9 | 129 | – | 80 | 61.9 | 51.6
x2 = 0.2454 | 1353 | – | 1329.3 | 1316.1 | 1305.8 | 87.1 | – | 57.5 | 44.6 | 37.2
x2 = 0.3506 | 1338.3 | 1326 | – | 1301 | 1290.9 | 60 | 48.3 | – | 31.8 | 27
x2 = 0.469 | 1319.3 | – | 1294 | 1281.8 | 1270.2 | 37.8 | – | 27.2 | 21 | 18
x2 = 0.5728 | 1299.1 | 1286 | 1273.8 | 1260.3 | 1247.8 | 24.5 | 20.4 | 17.1 | 14.2 | 11.9
x2 = 0.6564 | 1280 | 1266.1 | 1253.7 | 1240.2 | 1227.4 | 16.1 | 13.6 | 11.3 | 9.6 | 8.4
x2 = 0.7574 | 1251.3 | 1237.2 | 1223.1 | 1209.3 | 1195.7 | 9.63 | 8.06 | 6.67 | 5.85 | 5.11
x2 = 0.8422 | 1221.4 | 1207.1 | 1192.8 | 1178.4 | 1163.3 | 5.86 | 4.82 | 4.21 | 3.59 | 3.13
x2 = 0.9231 | – | 1175.5 | 1159.6 | 1142.7 | – | – | 3.15 | 2.68 | 2.34 | –
